ChEMBL document CHEMBL1201862, “PubChem BioAssay data set” (2004)
The source made the active and inactive calls.

Columns and labels:
[1] = molecular target: 72 kDa type IV collagenase (Homo sapiens, UniProt P08253); experiment: Dose Response validation of uHTS RPN11 inhibitor hits using a MMP-2 Fluorescence assay.; type: functional
[2] = molecular target: 26S proteasome non-ATPase regulatory subunit 14 (Homo sapiens, UniProt O00487); experiment: inhibition of proteasome subunit RPN11 – biochemical, fluorescence polarization, uHTS hits, confirmation (AID 602368); type: functional
Chain of 26S proteasome non-ATPase regulatory subunit 14 (O00487 whole entry): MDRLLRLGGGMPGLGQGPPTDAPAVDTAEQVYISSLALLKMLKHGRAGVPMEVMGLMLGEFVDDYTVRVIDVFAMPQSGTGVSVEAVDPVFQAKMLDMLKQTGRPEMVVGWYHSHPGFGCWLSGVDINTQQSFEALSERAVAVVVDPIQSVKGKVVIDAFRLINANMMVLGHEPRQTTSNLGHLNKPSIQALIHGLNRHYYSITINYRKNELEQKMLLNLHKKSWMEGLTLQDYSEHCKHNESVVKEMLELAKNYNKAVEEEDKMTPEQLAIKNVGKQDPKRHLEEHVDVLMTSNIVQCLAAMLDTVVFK

Prothrombin = Prothrombin (Bos taurus, UniProt P00735); experiment: thrombin inhibition, dose response, biochemical, fluorescence polarization, uHTS hits (AID 602369); type: functional
SN12K1 = experiment: cells; type: functional; conditions: Homo sapiens
P388 = experiment: cells; type: functional; conditions: Mus musculus
P388/ADR = experiment: cells; type: functional; conditions: Mus musculus, P388/ADR
[3] = molecular target: Photoreceptor-specific nuclear receptor (Homo sapiens, UniProt Q9Y5X4); type: functional, cell-based;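 also: CHO-S cells with Gal4-NCOR and VP16-NR2E3 two-hybrid luciferase reporter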
Chain of Photoreceptor-specific nuclear receptor (Q9Y5X4 whole entry, the tested form may be a part): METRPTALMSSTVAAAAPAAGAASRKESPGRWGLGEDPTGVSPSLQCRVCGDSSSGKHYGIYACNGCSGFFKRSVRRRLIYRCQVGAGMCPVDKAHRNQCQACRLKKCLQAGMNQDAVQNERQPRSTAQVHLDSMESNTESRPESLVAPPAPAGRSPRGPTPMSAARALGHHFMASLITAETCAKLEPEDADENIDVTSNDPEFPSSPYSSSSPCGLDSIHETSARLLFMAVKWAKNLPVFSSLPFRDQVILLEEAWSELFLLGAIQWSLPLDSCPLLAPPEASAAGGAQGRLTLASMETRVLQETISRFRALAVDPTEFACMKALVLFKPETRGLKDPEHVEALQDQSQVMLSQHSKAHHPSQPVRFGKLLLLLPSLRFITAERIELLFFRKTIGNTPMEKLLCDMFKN

Phospholipase A2 = Phospholipase A2 (Homo sapiens, UniProt P04054); type: functional;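 also: confirmatory dose-response counterscreen on phospholipase A2, testing hits that came from an ultra-high-throughput screen for ATG4B inhibitors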
Chain of Phospholipase A2 (P04054 whole entry): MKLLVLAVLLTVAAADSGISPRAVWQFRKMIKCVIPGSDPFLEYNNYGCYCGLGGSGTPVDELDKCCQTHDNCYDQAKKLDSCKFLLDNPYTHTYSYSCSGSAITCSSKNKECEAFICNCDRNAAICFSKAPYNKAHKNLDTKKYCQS

[4] = molecular target: T1, Tyrosine-protein phosphatase non-receptor type 7 (Homo sapiens, UniProt P35236); experiment: inhibitors of human HePTP phosphatase, […], biochemical, absorbance, leukemia target (AID 521); type: functional
T1 sequence (P35236 whole entry): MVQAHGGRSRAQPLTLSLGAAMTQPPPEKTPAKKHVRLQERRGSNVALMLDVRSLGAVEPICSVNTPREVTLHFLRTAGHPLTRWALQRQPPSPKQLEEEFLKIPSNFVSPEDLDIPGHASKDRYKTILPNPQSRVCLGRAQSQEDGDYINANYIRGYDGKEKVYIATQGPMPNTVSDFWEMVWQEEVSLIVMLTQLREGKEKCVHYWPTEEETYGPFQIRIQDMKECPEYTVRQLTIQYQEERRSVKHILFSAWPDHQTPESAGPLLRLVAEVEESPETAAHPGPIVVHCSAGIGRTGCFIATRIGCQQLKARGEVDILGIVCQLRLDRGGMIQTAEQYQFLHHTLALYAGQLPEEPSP

Cysteine protease ATG4B = molecular target: T2, Cysteine protease ATG4B (Homo sapiens, UniProt Q9Y4P1); type: functional;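 also: Fluorescence-based dose-response confirmation assay measuring inhibition of ATG4B activity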
T2 sequence (Q9Y4P1 whole entry): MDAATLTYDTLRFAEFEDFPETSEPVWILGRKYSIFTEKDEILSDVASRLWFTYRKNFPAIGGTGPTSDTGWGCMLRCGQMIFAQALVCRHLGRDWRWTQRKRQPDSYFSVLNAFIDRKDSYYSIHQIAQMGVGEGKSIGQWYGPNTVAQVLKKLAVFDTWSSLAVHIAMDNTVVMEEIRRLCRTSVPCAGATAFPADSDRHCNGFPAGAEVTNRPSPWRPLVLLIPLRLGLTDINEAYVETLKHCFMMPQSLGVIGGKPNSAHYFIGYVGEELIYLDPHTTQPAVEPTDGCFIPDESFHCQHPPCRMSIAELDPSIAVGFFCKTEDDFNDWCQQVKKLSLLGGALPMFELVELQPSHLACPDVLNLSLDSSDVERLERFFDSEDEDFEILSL

[5] = molecular target: Disintegrin and metalloproteinase domain-containing protein 17 (Homo sapiens, UniProt P78536); experiment: ADAM17 protease inhibitors, dose response, counter-screen for ADAM10 exosite inhibitor project, biochemical, quenched FRET substrate (AID 743253)
Chain of Disintegrin and metalloproteinase domain-containing protein 17 (P78536 whole entry, the tested form may be a part): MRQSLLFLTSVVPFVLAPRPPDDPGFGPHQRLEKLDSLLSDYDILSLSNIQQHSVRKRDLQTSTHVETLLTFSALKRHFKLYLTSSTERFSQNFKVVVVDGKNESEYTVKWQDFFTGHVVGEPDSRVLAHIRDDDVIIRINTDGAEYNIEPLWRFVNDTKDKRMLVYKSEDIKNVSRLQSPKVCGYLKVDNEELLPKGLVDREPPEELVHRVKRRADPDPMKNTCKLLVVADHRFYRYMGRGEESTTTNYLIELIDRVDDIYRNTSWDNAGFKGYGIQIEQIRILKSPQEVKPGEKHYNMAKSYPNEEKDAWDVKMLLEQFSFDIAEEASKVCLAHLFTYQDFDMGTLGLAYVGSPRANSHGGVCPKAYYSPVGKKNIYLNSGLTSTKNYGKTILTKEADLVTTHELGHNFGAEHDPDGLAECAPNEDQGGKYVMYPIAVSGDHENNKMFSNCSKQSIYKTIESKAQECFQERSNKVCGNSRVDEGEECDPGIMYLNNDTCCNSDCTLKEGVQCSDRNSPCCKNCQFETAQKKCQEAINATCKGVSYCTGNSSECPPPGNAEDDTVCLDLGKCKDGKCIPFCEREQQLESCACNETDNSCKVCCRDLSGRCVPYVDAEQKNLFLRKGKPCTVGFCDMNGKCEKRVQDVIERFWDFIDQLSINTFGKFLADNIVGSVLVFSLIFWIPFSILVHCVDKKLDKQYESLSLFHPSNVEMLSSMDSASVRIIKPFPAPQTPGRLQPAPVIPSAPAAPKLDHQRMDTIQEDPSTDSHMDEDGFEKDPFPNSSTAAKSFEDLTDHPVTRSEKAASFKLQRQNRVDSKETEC

Melanocortin receptor 4 = Melanocortin receptor 4 (Homo sapiens, UniProt P32245); experiment: MC4R antagonist potency on cAMP, dose response, cell-based, TR-FRET, biased antagonists (AID 602298); type: functional;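 also: antagonist potency against agonist-stimulated cAMP production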
Chain of Melanocortin receptor 4 (P32245 whole entry): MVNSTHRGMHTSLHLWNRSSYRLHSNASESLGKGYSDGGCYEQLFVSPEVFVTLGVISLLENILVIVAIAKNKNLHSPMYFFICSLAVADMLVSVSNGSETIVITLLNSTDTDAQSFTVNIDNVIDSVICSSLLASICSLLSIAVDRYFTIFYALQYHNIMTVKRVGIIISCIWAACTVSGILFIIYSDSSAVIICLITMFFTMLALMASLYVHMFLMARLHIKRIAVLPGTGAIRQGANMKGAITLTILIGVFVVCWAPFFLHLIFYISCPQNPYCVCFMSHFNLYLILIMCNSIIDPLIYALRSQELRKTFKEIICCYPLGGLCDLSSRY

[6] = nonselective inhibitors of cellular cAMP signaling, dose response, counter-screen for MC4R biased antagonist project, cell-based, TR-FRET cAMP detection (AID 602305); type: functional;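 also: U2OS cells stimulated with forskolin near its EC80 as the cAMP inducer; potency is for inhibition of forskolin-stimulated cAMP signaling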
[7] = C. albicans growth with fluconazole, confirmation, fluorescence, retest (AID 2467); type: functional, cell-based
Streptokinase A = molecular target: T3, Streptokinase A (Streptococcus pyogenes serotype M1, UniProt P10520); experiment: S. pyogenes streptokinase expression inhibitors, potency, dose response, plasminogen activation absorbance, OD405 (AID 1914); type: functional, Streptococcus pyogenes M1 GAS;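 also: secreted streptokinase activity via plasminogen activation per viability signal from cell pellet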
T3 sequence (P10520 whole entry): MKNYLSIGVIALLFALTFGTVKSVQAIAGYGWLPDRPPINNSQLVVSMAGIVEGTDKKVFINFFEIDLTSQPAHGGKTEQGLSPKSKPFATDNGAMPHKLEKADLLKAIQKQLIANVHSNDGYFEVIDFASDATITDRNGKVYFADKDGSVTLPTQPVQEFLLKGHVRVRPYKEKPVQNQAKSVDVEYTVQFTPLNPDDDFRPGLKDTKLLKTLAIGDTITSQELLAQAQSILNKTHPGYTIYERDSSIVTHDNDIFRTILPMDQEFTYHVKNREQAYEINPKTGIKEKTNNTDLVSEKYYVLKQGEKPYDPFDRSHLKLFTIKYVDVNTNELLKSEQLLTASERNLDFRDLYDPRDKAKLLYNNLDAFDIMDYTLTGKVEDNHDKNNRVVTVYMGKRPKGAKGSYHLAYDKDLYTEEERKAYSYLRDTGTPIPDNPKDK

[8] = CRF-BP/CRF-R2 complex antagonists, dose response, cell-based, uHTS hits, 384-well (AID 651639); type: functional, Homo sapiens; conditions: read-out: IC50_Mean
[9] = NIH-3T3 fibroblast cytotoxicity, dose response, cytotoxicity control, cell-based, fluorescence, Alamar Blue, secondary assay (AID 2327); type: functional;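 also: NIH-3T3 mouse fibroblasts cultured with fluconazole at 8 µg/mL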
[10] = molecular target: T4, Corticotropin-releasing factor receptor 2/Corticotropin-releasing factor-binding protein (Homo sapiens, UniProt P24387+Q13324); experiment: activators of CRF receptor 2 with binding protein – uHTS hits, confirmation (AID 602473); type: functional; conditions: read-out: EC50_Mean
T4 sequence (Q13324 whole entry): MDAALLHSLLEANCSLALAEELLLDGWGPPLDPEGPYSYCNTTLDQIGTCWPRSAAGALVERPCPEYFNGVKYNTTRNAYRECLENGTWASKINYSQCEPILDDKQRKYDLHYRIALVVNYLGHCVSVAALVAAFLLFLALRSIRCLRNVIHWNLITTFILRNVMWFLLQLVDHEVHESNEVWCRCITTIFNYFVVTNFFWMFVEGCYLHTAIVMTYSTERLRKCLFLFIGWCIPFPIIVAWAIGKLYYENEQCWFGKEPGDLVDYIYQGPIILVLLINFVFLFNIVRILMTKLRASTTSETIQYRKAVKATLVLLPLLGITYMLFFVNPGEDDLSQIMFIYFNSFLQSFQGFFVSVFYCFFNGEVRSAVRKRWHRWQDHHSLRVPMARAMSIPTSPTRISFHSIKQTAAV
T4 sequence (P24387 whole entry): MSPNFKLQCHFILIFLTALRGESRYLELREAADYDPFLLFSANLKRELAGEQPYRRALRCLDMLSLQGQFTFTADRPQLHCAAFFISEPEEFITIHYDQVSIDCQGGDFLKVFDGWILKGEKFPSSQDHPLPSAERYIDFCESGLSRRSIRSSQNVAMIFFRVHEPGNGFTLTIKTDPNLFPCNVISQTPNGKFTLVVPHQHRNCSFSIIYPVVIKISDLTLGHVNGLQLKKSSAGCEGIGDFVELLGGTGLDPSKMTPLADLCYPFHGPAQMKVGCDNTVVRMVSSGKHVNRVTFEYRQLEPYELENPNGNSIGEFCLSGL

[11] = molecular target: T4, Corticotropin-releasing factor receptor 2/Corticotropin-releasing factor-binding protein; experiment: Dose Response confirmation of uHTS hits for small molecule antagonists of the CRF-binding protein and CRF-R2 receptor complex.; type: functional; conditions: read-out: IC50_Mean
[12] = tested on: Streptococcus sp. 'group A'; experiment: growth inhibition of control SK(-) GAS strain, dose response, counter-screen for streptokinase expression inhibitor project, luminescence, kanamycin, BacTiterGlo, confirmation (AID 1900); type: functional, organism-based
Streptococcus = experiment: Group A Streptococcus viability loss, dose response, counter-screen for streptokinase expression inhibitor project, luminescence, BacTiterGlo (AID 1915); type: functional, organism-based;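 also: potency for reduction of bacterial viability or growth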
[13] = Shn3 3'UTR reporter inhibitors, dose response, cell-based, Clone20 osteoblasts, firefly luciferase, cherry-picked (AID 624132); type: functional;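 also: firefly luciferase luminescence from reporter carrying the Shn3 3'UTR in osteoblasts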
[14] = control 3'UTR Renilla luciferase suppression, dose response, counter-screen for Shn3 inhibitor project, cell-based, Clone20-Shn3RL, cherry-picked (AID 624133); type: functional
[15] = HepG2 cell cytotoxicity, dose response, cytotoxicity control for Shn3 inhibitor project, CellTiter-Glo, cherry-picked (AID 624134); type: functional, cell-based

Chain of 72 kDa type IV collagenase (P08253 whole entry): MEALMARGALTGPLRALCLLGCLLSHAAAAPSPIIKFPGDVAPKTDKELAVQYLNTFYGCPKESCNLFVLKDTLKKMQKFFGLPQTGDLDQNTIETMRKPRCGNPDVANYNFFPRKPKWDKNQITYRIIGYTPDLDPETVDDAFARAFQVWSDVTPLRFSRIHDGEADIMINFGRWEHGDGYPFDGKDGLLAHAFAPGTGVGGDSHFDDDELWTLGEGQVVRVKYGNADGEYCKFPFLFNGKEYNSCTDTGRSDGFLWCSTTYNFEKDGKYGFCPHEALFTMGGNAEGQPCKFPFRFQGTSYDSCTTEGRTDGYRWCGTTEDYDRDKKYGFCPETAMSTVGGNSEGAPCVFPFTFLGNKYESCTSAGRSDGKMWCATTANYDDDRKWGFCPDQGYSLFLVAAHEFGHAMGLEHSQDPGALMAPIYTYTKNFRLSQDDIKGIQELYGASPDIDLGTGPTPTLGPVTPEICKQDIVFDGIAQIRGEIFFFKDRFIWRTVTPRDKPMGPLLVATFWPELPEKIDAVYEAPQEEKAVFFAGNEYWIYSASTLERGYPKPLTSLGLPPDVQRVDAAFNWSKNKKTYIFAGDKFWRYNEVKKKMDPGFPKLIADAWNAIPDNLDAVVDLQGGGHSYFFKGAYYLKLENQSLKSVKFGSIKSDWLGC

For CCc1ccccc1OCC(=O)Nc1ccc(N2CCCC2)cc1C, the IC50 [1] was 89 µM (active), the IC50 [2] was 46.2 µM (active) and the IC50 (Prothrombin) was 9.96 µM (active).
In the case of N/C(=N\O)N/N=C/c1ccc2c(c1)OCCO2, the GI50 (SN12K1) is reported as 2.88 µM (inactive), the GI50 (P388) is reported as 13.1 µM (inactive) and the GI50 (P388/ADR) is reported as 12.8 µM (inactive).
For Cc1nc(NC(=O)c2c(-c3ccccc3Cl)noc2C)sc1C, the IC50 [3] was 4.19 µM (active).
In the case of COc1ccc(-c2n[nH]c(C(F)(F)F)c2-c2cc3ccccc3o2)c(O)c1, the IC50 (Phospholipase A2) is reported as 7.64 µM (active), the IC50 [4] is reported as > 100 µM (not active) and the IC50 (Cysteine protease ATG4B) is reported as 9.42 µM (active). For the same compound, the IC50 [5] was > 69.5 µM (inactive).
With COCOc1ccc(OC)cc1 the GI50 (SN12K1) was > 100 µM (inactive), the GI50 (P388) was > 100 µM (inactive) and the GI50 (P388/ADR) was > 100 µM (inactive).
For CSCCC(NC(=O)c1ccc([N+](=O)[O-])cc1Cl)C(=O)OC(C)C(=O)NCc1ccco1 (configuration not stated), the IC50 (Melanocortin receptor 4) was > 64.6 µM (inactive) and the IC50 [6] was 47.4 µM (inactive).
With O=[N+]([O-])c1cc(C(F)(F)F)cc2c1SC1=Nc3ccccc3CN12 the GI50 (SN12K1) was > 100 µM (inactive), the GI50 (P388) was > 100 µM (inactive) and the GI50 (P388/ADR) was > 100 µM (inactive).
With CC(C)C(Sc1nc(-c2ccccc2)cc(-c2ccccc2)c1C#N)C(=O)O (configuration not stated) the IC50 (Phospholipase A2) was 9.87 µM (active), the EC50 [7] was 2.61 µM (active) and the EC50 (Streptokinase A) was 10.1 µM (active). For the same compound, the IC50 [8] was > 20 µM (inactive), the EC50 [9] was 26.8 µM (active) and the EC50 [10] was 35.7 µM (active). For the same compound, the IC50 [11] was 6.76 µM (active), the EC50 [12] was 7.77 µM (active) and the IC50 (Cysteine protease ATG4B) was 11.3 µM (active). The EC50 (Streptococcus) was 9.19 µM (active).
With Cc1n[nH]c2ccc(-c3cncc(OC[C@@H](N)Cc4c[nH]c5ccccc45)c3)cc12 [A-443654] the AC50 [13] was 1.77 µM (active), the AC50 [14] was 2.85 µM (active) and the AC50 [15] was 7.4 µM (active).
